Assay: HCV Replicon Luciferase Assay: To evaluate compound efficacy, titrated compounds were transferred to sterile 384-well tissue culture treated plates, and the plates were seeded with HCV replicon cells (50 μL at a density of 2.4×10^3 cells/well) in DMEM containing 4% FBS (final DMSO concentration at 0.5%). After 3 days incubation at 37° C., cells were analyzed for Renilla Luciferase activity using the EnduRen substrate (Promega cat #E6485) according to the manufacturer's directions. Briefly, the EnduRen substrate was diluted in DMEM and then added to the plates to a final concentration of 7.5 μM. The plates were incubated for at least 1 h at 37° C. then read on a Viewlux Imager (PerkinElmer) using a luminescence program. The 50% effective concentration (EC50) was calculated using the four-parameter logistic formula noted above.To assess cytotoxicity of compounds, Cell Titer-Blue (Promega) was added to the EnduRen-containing plates and incubated for at least 4 hrs at 37° C. The fluorescence signal from each well was read using a Viewlux Imager. All CC50 values were calculated using the four-parameter logistic formula.
Settings: 72 h

| SMILES | EC50 [nM] |
| --- | --- |
| CNC(=O)c1c(-c2ccc(F)cc2)oc2cc(N(CCF)S(C)(=O)=O)c(-c3cccc(C(=O)N[C@H](COC)C4CC4)c3)cc12 | < 100 |
| CNC(=O)c1c(-c2ccc(F)cc2)oc2cc(N(CCF)S(C)(=O)=O)c(-c3cccc(C(=O)N[C@@H](COC)C4CC4)c3)cc12 | < 100 |

From ChEMBL document CHEMBL5725899, “Benzofurans substituted with primary benzamide as HCV inhibitors” (2018)
